# Results: US4978332A, “Treatments employing vasoconstrictive substances in combination with cytotoxic agents for introduction into cellular lesion areas” (priority 1987, dated 1990)
# Structures can show the parent of a compound that is named as a salt. Where two headings read alike, the source gives them in different places.
# Columns and labels:
# [1] = test system: RIF-1 murine fibrosarcoma
# Protocol: The transplantable experimental murine fibrosarcomas RIF-1 or KHT were grown intradermally (2×10^5 cells injected i.d.) in the flank of 5 month old male C3H mice. When tumors reached a volume of ~100 mm^3 they were used for the studies. […] Drug concentrations were: adriamycin, 3.75 mg/ml: BCNU, 10 mg/ml: vinblastine, 1.2 mg/ml; and 5-fluorouracil, 30 mg/ml. The drugs were administered intraperitoneally (i.p.) or intratumorally (i.t.) in an injection volume of 0.1 ml. The tumors of the treated mice as well as untreated control tumors were measured three times per week by vernier calipers and their volumes were calculated by the formula:
# *This ratio indicated the time it would take a treated tumor to grow to
# 4× its initial size, divided by the time it would take an untreated
# tumor to grow to 4× its initial size.
# KHT murine fibrosarcoma = experiment: Tumor growth ratio (time to grow to 4x initial volume, treated/untreated), KHT fibrosarcoma in C3H mice; type: in vivo, mouse (C3H)
# Protocol: (§1) The transplantable experimental murine fibrosarcomas RIF-1 or KHT were grown intradermally (2×10^5 cells injected i.d.) in the flank of 5 month old male C3H mice. When tumors reached a volume of ~100 mm^3 they were used for the studies. The cytotoxic drugs under study (all were formulated for human clinical use) were made up just prior to use in their appropriate aqueous vehicle except those experimental groups in which epinephrine-HCl (1 mg/ml) was added to the aqueous drug (usually ~10% of total volume). Drug concentrations were: adriamycin, 3.75 mg/ml: BCNU, 10 mg/ml: vinblastine, 1.2 mg/ml; and 5-fluorouracil, 30 mg/ml. The drugs were administered intraperitoneally (i.p.) or intratumorally (i.t.) in an injection volume of 0.1 ml. The tumors of the treated mice as well as untreated control tumors were measured three times per week by vernier calipers and their volumes were calculated by the formula: […]
# (§2) where D1 -D3 are tumor diameters in mm. The time (days) for the tumors to grow to four times their original experimental volume was used as a parameter of treatment effectiveness.
# [2] = test system: murine fibrosarcomas RIF-1 or KHT; settings: epinephrine 1 mg/kg alone
# Protocol: as §1, §2
# [3] = 2 mg/kg BW i.t., Epi 1 mg/kg where combined
smiles,measurement,setting,value
"O=c1[nH]cc(F)c(=O)[nH]1 [5-Fluorouracil, 5-fluorouracil]",Tumor Growth Ratio,[1]; 100 mg/kg BW i.p.,1.20
same,Tumor Growth Ratio,"[1]; 100 mg/kg BW i.t., Epi 1 mg/kg where combined",1.30
"COc1cccc2c1C(=O)c1c(O)c3c(c(O)c1C2=O)C[C@@](O)(C(=O)CO)C[C@@H]3O[C@H]1C[C@H](N)[C@H](O)[C@H](C)O1 [Adriamycin, doxorubicin hydrochloride]",Tumor Growth Ratio,[1]; 15 mg/kg BW i.p.,1.63
same,Tumor Growth Ratio,"[1]; 15 mg/kg BW i.t., Epi 1 mg/kg where combined",3.04
"O=NN(CCCl)C(=O)NCCCl [BCNU (carmustine), carmustine]",Tumor Growth Ratio,"KHT murine fibrosarcoma; 40 mg/kg BW i.t., Epi 1 mg/kg where combined",2.08
"CNC[C@H](O)c1ccc(O)c(O)c1 [Epinephrine, epinephrine]",chemotherapeutic effect when used alone,[2],not chemotherapeutic when used alone
"CC[C@]1(O)C[C@@H]2CN(CCc3c([nH]c4ccccc34)[C@@](C(=O)OC)(c3cc4c(cc3OC)N(C)[C@H]3[C@@](O)(C(=O)OC)[C@H](OC(C)=O)[C@]5(CC)C=CCN6CC[C@]43[C@@H]65)C2)C1 [Vinblastine, vinblastine sulfate]",Tumor Growth Ratio,[1]; 2 mg/kg BW i.p.,1.12
same,Tumor Growth Ratio,[1]; [3],3.01
same,Tumor Growth Ratio,KHT murine fibrosarcoma; 2 mg/kg BW i.p.,1.16
same,Tumor Growth Ratio,KHT murine fibrosarcoma; [3],1.76
